Experimental data as given in article PMC4232510, “Identification of Functionally Important Residues of the Rat P2X4 Receptor by Alanine Scanning Mutagenesis of the Dorsal Fin and Left Flipper Domains” (PLoS ONE, 2014).
Numbering of substitutions follows the chain as printed. Values joined by “and” are separate entries in the source; they are usually repeats but may differ in a detail not shown here. Equal values may be shown once.

Assays:
Assay type in all cases: cell-based
wild type (WT) rP2X4R = target: T1, wild type (WT) rP2X4R (Rattus norvegicus, UniProt P51577); test: whole-cell patch clamp, HEK293T cells expressing WT receptor; settings: for relative responsiveness: 100 µM agonist 2 s, relative to ATP (100%); for EC50: naïve receptors, 2–5 s application
T1 construct: expressed in transfected cells; host or cells: HEK293T
T1 sequence (P51577 1-388): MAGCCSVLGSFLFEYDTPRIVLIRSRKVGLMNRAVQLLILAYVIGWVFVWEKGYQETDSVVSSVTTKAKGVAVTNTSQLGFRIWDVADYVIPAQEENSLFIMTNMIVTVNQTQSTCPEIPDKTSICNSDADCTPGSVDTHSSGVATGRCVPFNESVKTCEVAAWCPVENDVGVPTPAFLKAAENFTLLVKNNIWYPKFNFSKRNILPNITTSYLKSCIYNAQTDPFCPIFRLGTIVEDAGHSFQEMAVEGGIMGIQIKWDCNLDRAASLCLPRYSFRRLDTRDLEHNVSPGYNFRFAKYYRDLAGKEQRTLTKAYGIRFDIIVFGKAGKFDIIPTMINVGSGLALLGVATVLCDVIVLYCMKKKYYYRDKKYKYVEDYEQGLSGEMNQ
Experimental: To express the recombinant channels, we used human embryonic kidney (HEK) 293T cells (American Type Culture Collection, Rockville, MD, USA) grown in Dulbecco modified Eagle’s medium (Thermo Fisher Scientific, Waltham, MA) supplemented with 10% fetal bovine serum (Sigma-Aldrich, St Louis, MO), 50 U/ml penicillin and 50 µg/ml streptomycin (both Thermo Fisher Scientific, Waltham, MA) in a humidified 5% CO2 and 95% air at 37°C. Cells were cultured in 75 cm^2 plastic culture flasks (NUNC, Rochester, NY) for 36–72 hours until reaching 80–95% confluence. Before the day of transfection, the cells were plated on 35 mm culture dishes (Sarstedt, Newton, NC) and incubated at 37°C for at least 24 h. Transfection was done using 2 µg of either WT or mutant receptor DNA with 2 µl of JetPrime reagent in 2 ml of Dulbecco modified Eagle’s medium, according to manufacturer’s instructions (PolyPlus-transfection, Illkirch, France). Transfected cells were identified by the fluorescence signal of EGFP using the Olympus IX71 inverted research microscope with fluorescence illuminators (Model IX71; Olympus, Melville, NY).
cDNAs encoding the sequences of the rP2X4 and mutated subunits were subcloned into the pIRES2-EGFP vector (Clontech, Mountain View, CA, USA). To generate the mutants, oligonucleotides (synthesized and provided by VBC-Genomics, Vienna, Austria or Sigma Aldrich) containing specific mutagenesis mismatches were introduced into the rP2X4/pIRES2-EGFP template using PfU Ultra DNA polymerase (Thermo Fisher Scientific). A High-Speed Plasmid Mini Kit (Geneaid, Taipei City, Taiwan) was used to isolate the plasmids for transfection. Dye terminator cycle sequencing (ABI PRISM 3100, Applied Biosystems, Foster City, CA) was used to identify and verify the presence of the mutations. The sequencing was performed by the DNA Sequencing Laboratory, Institute of Microbiology, ASCR, Prague.
ATP-induced currents were recorded from whole cells clamped to −60 mV using an Axopatch 200B patch-clamp amplifier (Axon Instruments, Union City, CA). The recordings were captured and stored using the Digidata 1322A and pClamp9 software package (Axon Instruments). During the experiments, the cell culture was perfused with a bath solution containing: 142 mM NaCl, 3 mM KCl, 2 mM CaCl2, 1 mM MgCl2, 10 mM 4-(2-Hydroxyethyl)piperazine-1-ethanesulfonic acid (HEPES) and 10 mM D-glucose, adjusted to pH 7.3 with 1 M NaOH. The patch electrodes were filled with a solution containing: 154 mM CsCl, 11 mM EGTA and 10 mM HEPES, adjusted to pH 7.2 with 1.6 M CsOH. The whole-cell configuration was used to abolish the influence of natively present metabotropic receptors for ATP and we used intracellular cesium to block any kind of possible background potassium conductance. Potency of ATP was measured based on the activation of naïve (not previously stimulated) receptors using a short (2–5 s) application of various concentrations of ATP. The results are expressed as molar concentration of ATP required to produce 50% of the maximal response (EC50). One or two responses were recorded from one cell, if not otherwise stated, and responses from different cells were pooled. The maximum current amplitude (Imax) was measured in response to application of supramaximal concentrations (100–1000 µM) of ATP. Responsiveness to P2XR agonists 2-MeS-ATP, ATPγS, BzATP, and α,β-meATP, all applied in 100 µM concentration, was expressed as percentage of response in comparison to 100 µM ATP treatment for selected mutants. In all mutants, the whole cell currents were also measured in the presence of 3 µM IVM, which was dissolved in dimethyl sulfoxide, stored in stock solutions at 10 mM, and diluted to required concentrations in bath solution in the day of experiment. The control and drug containing solutions were applied via a rapid (exchange time 30–40 ms) perfusion system (RSC-200, BIOLOGIC, Claix, France). All other chemicals are from Sigma-Aldrich. […]

rP2X4R R282A mutant = target: T2, rP2X4R R282A mutant (Rattus norvegicus, UniProt P51577, R282A); test: whole-cell patch clamp, HEK293T cells expressing mutant; settings: for relative responsiveness: 100 µM agonist 2 s, relative to ATP (100%)
T2 construct: expressed in transfected cells; host or cells: HEK293T
T2 sequence (P51577 1-388 R282A): T1 sequence (P51577 1-388) with R282A

rP2X4R P207A mutant = target: T3, rP2X4R P207A mutant (Rattus norvegicus, UniProt P51577, P207A); test: as above
T3 construct: expressed in transfected cells; host or cells: HEK293T
T3 sequence (P51577 1-388 P207A): T1 sequence (P51577 1-388) with P207A

[1] = 100 µM ATP 60 s, biexponential fit
[2] = contribution of τdes2, 100 µM ATP 60 s
[3] = decay after removal of 1 or 3 µM ATP, 3 µM IVM
[4] = naïve receptors, 2–5 s application
[5] = 3 µM IVM 4-6 min vs IVM-untreated

Compound: 2′(3′-O-(4-Benzoylbenzoyl)adenosine 5′-triphosphate [BzATP]
- relative responsiveness (wild type (WT) rP2X4R): 38% and 38.2±3.4%
- EC50 (wild type (WT) rP2X4R): 11.1 ± 2.9 µM
- relative responsiveness (rP2X4R R282A mutant): 25.7±3.7%

Compound: CSc1nc(N)c2ncn([C@@H]3O[C@H](COP(=O)(O)OP(=O)(O)OP(=O)(O)O)[C@@H](O)[C@H]3O)c2n1 [2-MeS-ATP, 2-(Methylthio)adenosine 5′-triphosphate]
- relative responsiveness (wild type (WT) rP2X4R): 67% and 67.3±4.6%
- EC50 (wild type (WT) rP2X4R): 7.9 ± 1 µM
- relative responsiveness (rP2X4R R282A mutant): 55.1±12.9%

Compound: Nc1ncnc2c1ncn2[C@@H]1O[C@H](COP(=O)(O)OP(=O)(O)OP(=O)(O)O)[C@@H](O)[C@H]1O [ATP]
- τdes1 (wild type (WT) rP2X4R; [1]): 1.3 ± 0.2 s
- τdes2 (wild type (WT) rP2X4R; [1]): 9.0 ± 0.7 s
- relative responsiveness (wild type (WT) rP2X4R): 100%
- Imax (wild type (WT) rP2X4R; 100–1000 µM ATP): 2.2 ± 0.2 nA
- Imax+IVM (wild type (WT) rP2X4R; ATP after 3 µM IVM 4-6 min): 3.4 ± 0.3 nA
- A2 /(A1+A2) (wild type (WT) rP2X4R; [2]): 63 ± 3%
- τoff +IVM (wild type (WT) rP2X4R; [3]): 21 ± 1.0 s
- EC50 (wild type (WT) rP2X4R): 2.3 ± 0.4 µM
- τdes (wild type (WT) rP2X4R; weighted, 100 µM ATP 60 s): 6.0 ± 0.4 s
- EC50 rightward shift compared to WT (rP2X4R R282A mutant): approximately 10 fold
- τdes1 (rP2X4R R282A mutant; [1]): 4.0 ± 0.3 s
- τdes2 (rP2X4R R282A mutant; [1]): 14.7 ± 2.0 s
- Imax (rP2X4R R282A mutant; 100–1000 µM ATP): 0.7 ± 0.1 nA
- Imax+IVM (rP2X4R R282A mutant; ATP after 3 µM IVM 4-6 min): 4.5 ± 0.5 nA
- A2 /(A1+A2) (rP2X4R R282A mutant; [2]): 64 ±14%
- τoff +IVM (rP2X4R R282A mutant; [3]): 7.0 ± 0.6 s
- EC50 (rP2X4R R282A mutant; [4]): 23 ± 8 µM
- τdes (rP2X4R R282A mutant; weighted, 100 µM ATP 60 s): 14 ± 1.0 s
- τdes1 (rP2X4R P207A mutant; [1]): 0.7 ± 0.1 s
- τdes2 (rP2X4R P207A mutant; [1]): 5.6 ± 0.2 s
- A2 /(A1+A2) (rP2X4R P207A mutant; [2]): 71 ± 2%
- EC50 (rP2X4R P207A mutant; [4]): 2.1 ± 1.1 µM
- τdes (rP2X4R P207A mutant; weighted, 100 µM ATP 60 s): 4.1 ± 0.2 s

Compound: Nc1ncnc2c1ncn2[C@@H]1O[C@H](CO[P@](=O)(O)O[P@](=O)(O)O[P@@](=O)(O)S)[C@@H](O)[C@H]1O [ATPγS, Adenosine 5′-(γ-thio)triphosphate]
- relative responsiveness (wild type (WT) rP2X4R): 50% and 49.6±3.5%
- EC50 (wild type (WT) rP2X4R): 8.4 ± 1.8 µM
- relative responsiveness (rP2X4R R282A mutant): 45.5±5.2%

Compound: CC[C@H](C)[C@H]1O[C@]2(CC[C@@H]1C)C[C@@H]1C[C@@H](C/C=C(\C)[C@@H](O[C@H]3C[C@H](OC)[C@@H](O[C@H]4C[C@H](OC)[C@@H](O)[C@H](C)O4)[C@H](C)O3)[C@@H](C)/C=C/C=C3\CO[C@@H]4[C@H](O)C(C)=C[C@@H](C(=O)O1)[C@]34O)O2 [IVM, ivermectin]
- Fold incr. Imax (wild type (WT) rP2X4R; [5]): 1.7 ± 0.2 fold
- Fold incr. Imax (rP2X4R P207A mutant; [5]): 1.5 ± 0.3 fold

Compound: Nc1ncnc2c1ncn2C1OC(COP(=O)(O)CP(=O)(O)OP(=O)(O)O)C(O)C1O (stereo not drawn) [α,β-meATP, α,β-methyleneadenosine 5′-triphosphate]
- relative responsiveness (wild type (WT) rP2X4R): 32% and 31.8±3.3%
- EC50 (wild type (WT) rP2X4R): 62 ± 18 µM
- relative responsiveness (rP2X4R R282A mutant): 27.3±7.9%
